Calls of active or inactive are those of the source. No cut-off for these calls is given here.
Assays:
Mus musculus [1] = assay: Anticonvulsant activity in Kunming mouse assessed as reduction in MES-induced seizure at 30 to 300 mg/kg, ip measured after 30 mins; assay type: functional, organism-based
Mus musculus [2] = assay: Anticonvulsant activity in Kunming mouse assessed as reduction in ScPTZ-induced seizure at 100 mg/kg, ip administered before 30 mins of ScPTZ stimulation; assay type: functional, organism-based
Mus musculus [3] = assay: Anticonvulsant activity in Kunming mouse assessed as reduction in ScPTZ-induced seizure at 30 mg/kg, ip administered before 30 mins of ScPTZ stimulation; assay type: functional, organism-based
Mus musculus [4] = assay: Anticonvulsant activity in Kunming mouse assessed as reduction in ScPTZ-induced seizure at 300 mg/kg, ip administered before 30 mins of ScPTZ stimulation; assay type: functional, organism-based
Cortical neurone = assay: Antiepileptic actvity in C57BL/6 mouse Primary cortical neuron assessed as reduction in 4-AP-induced excitability measured for 8 mins by Fluo-8/AM staining based FLIPR assay; assay type: functional, cell-based; details: C57BL/6, Cortical neurone
[5] = Neurotoxicity in ip dosed Kunming mouse assessed as reduction in equilibrium measured after 30 mins by rotarod test; assay type: toxicity, organism-based; details: in vivo
[6] = Protective index, ratio of TD50 for neurotoxicity in ip dosed Kunming mouse to ED50 for anticonvulsant activity in ip dosed Kunming mouse; assay type: toxicity, organism-based; details: in vivo, read-out: Ratio TD50/ED50
Mus musculus [7] = assay: Anticonvulsant activity in ip dosed Kunming mouse assessed as reduction in ScPTZ-induced seizure administered before 30 mins of ScPTZ stimulation; assay type: functional; details: 0.5 h
Mus musculus [8] = assay: Anticonvulsant activity in ip dosed CF-1 mouse assessed as reduction in ScPTZ-induced seizure administered before 30 mins of ScPTZ stimulation; assay type: functional; details: CF-1, ip, 0.5 h
Mus musculus [9] = species on record: Mus musculus; assay: Inhibition of sodium channel in C57BL/6 mouse primary cortical neurons at 10 uM by manual patch clamp electrophysiology method
[10] = target: T1, GABA-A receptor; alpha-1/beta-2/gamma-2 (Homo sapiens) (UniProt P14867+P47870+P18507); assay: Activation of recombinant human GABA receptor alpha1beta2gamma2 expressed in CHO cells and measured for 120 secs by FMP dye based FLIPR assay; assay type: cell-based
[11] = target: T2, GABA-A receptor; alpha-1/beta-2/gamma-2 (Homo sapiens, UniProt P14867+P18507+P47870); assay: (§1) Activation of recombinant human GABA receptor alpha1beta2gamma2 expressed in CHO cells in presence of GABA and measured for 120 secs by FMP dye based FLIPR assay; assay type: cell-based
T2 sequence (P14867 whole entry): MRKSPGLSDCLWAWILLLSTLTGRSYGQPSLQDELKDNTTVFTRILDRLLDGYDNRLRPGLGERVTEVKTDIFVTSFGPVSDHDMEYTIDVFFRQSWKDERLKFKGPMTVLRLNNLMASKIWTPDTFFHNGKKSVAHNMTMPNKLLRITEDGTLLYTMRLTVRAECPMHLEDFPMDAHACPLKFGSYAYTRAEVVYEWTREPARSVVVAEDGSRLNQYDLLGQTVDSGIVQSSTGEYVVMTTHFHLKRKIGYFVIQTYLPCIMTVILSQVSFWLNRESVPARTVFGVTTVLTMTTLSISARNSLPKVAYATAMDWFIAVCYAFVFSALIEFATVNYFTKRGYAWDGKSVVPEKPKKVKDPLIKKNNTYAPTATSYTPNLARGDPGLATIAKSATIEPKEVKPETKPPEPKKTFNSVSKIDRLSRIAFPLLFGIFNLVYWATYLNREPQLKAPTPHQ
T2 sequence (P47870 whole entry): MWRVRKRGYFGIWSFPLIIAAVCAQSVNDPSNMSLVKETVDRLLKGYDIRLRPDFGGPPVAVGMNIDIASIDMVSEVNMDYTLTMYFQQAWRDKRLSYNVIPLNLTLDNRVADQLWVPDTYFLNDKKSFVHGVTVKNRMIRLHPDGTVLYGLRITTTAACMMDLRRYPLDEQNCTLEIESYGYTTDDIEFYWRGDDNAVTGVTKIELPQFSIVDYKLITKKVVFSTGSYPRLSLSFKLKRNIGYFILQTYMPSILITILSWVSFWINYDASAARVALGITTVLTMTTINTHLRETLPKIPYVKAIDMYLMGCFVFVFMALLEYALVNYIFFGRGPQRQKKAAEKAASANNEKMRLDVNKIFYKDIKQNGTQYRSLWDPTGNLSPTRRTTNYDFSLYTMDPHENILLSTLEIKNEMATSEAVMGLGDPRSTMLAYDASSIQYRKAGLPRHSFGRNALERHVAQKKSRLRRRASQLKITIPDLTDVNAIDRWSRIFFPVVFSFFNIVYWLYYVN
T2 sequence (P18507 whole entry): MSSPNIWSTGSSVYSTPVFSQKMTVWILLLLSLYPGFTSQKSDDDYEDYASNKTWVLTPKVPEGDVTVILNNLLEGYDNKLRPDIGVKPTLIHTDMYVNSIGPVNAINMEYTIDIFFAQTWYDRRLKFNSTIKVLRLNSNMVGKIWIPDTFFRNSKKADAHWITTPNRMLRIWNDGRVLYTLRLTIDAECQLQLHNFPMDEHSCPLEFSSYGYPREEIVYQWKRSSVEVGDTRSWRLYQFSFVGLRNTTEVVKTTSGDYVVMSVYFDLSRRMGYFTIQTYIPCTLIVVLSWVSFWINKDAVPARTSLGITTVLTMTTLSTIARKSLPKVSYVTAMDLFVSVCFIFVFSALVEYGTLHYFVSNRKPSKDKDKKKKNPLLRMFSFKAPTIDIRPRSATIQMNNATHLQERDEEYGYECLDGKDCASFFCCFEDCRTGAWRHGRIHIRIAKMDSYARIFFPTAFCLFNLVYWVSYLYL

[12] = target: T1, GABA-A receptor; alpha-1/beta-2/gamma-2 (Homo sapiens); assay: as §1; assay type: cell-based
[13] = target: T2, GABA-A receptor; alpha-1/beta-2/gamma-2; assay: Positive allosteric modulation of recombinant human GABA receptor alpha1beta2gamma2 expressed in CHO cells at 30 uM in presence of GABA and measured for 120 secs by FMP dye based FLIPR assay (reference value: 0.25 +/- 0.03 uM); assay type: cell-based
Mus musculus [14] = species on record: Mus musculus; assay: Inhibition of sodium channel in C57BL/6 mouse Primary cortical neurons at 100 uM by manual patch clamp electrophysiology method

Compound	Activity (Mus musculus [1])	Activity (Mus musculus [2])	Activity (Mus musculus [3])	Activity (Mus musculus [4])	IC50 (Cortical neurone)	further results
O=c1cc(Cc2ccc(Cl)cc2)[nH]c2nc(Cc3ccccc3)nn12	inactive	inactive	inactive	Active		
CCCCCCc1nc2[nH]c(-c3ccc(Cl)cc3)cc(=O)n2n1	inactive	Active	Active	Active	8.72 µM	
O=c1cc(-c2ccccc2)[nH]c2nc(Cc3ccc(Cl)cc3)nn12	inactive	Active	Active	Active	1.83 µM	TD50 at 0.5 h [5]: 211 mg/kg; selectivity ratio [6]: 3.45; ED50 (Mus musculus [7]): 61.1 mg/kg
CCCC(CCC)C(=O)O [VALPROIC ACID]						ED50 (Mus musculus [8]): 149 mg/kg
CCCCCc1nc2[nH]c(-c3ccc(Cl)cc3)cc(=O)n2n1	inactive	Active	Active	inactive	8.25 µM	
CCCCc1nc2[nH]c(-c3ccc(Cl)cc3)cc(=O)n2n1	inactive	inactive	inactive	inactive		
Cc1ccc(Cc2nc3[nH]c(-c4ccc(Cl)cc4)cc(=O)n3n2)cc1	inactive	inactive	inactive	inactive	5.44 µM	
Cc1ccc(Cc2nc3[nH]c(-c4ccccc4)cc(=O)n3n2)cc1	inactive	Active	Active	Active	1.15 µM	TD50 at 0.5 h [5]: 281 mg/kg; selectivity ratio [6]: 4.26; ED50 (Mus musculus [7]): 65.8 mg/kg
NC(=O)N1c2ccccc2C=Cc2ccccc21 [CARBAMAZEPINE]						ED50 (Mus musculus [8]): > 100 mg/kg
O=c1cc(Cc2ccccc2)[nH]c2nc(Cc3ccc(F)cc3)nn12	inactive	inactive	inactive	inactive		
O=C1NC(=O)C(c2ccccc2)(c2ccccc2)N1 [PHENYTOIN]						ED50 (Mus musculus [8]): > 300 mg/kg
CCCCc1nc2[nH]c(-c3ccccc3)cc(=O)n2n1	inactive	inactive	inactive	inactive		
Cc1ccc(-c2nc3[nH]c(Cc4ccc(F)cc4)cc(=O)n3n2)cc1	inactive	inactive	inactive	inactive		
Cc1ccc(Cc2cc(=O)n3nc(Cc4ccccc4)nc3[nH]2)cc1	inactive	inactive	inactive	inactive		
CCCCCCCc1nc2[nH]c(-c3ccc(Cl)cc3)cc(=O)n2n1	inactive	inactive	inactive	inactive		
O=c1cc(Cc2ccc(Cl)cc2)[nH]c2nc(-c3ccccc3)nn12	inactive	Active	Active	Active	0.452 µM	inhibition (Mus musculus [9]): inactive; Activity [10]: inactive; TD50 at 0.5 h [5]: 548 mg/kg; selectivity ratio [6]: 17.2; EC50 [11]: 3.08 µM; Activity [12]: Dose-dependent effect; EC50 [13]: 0.2 µM; inhibition (Mus musculus [14]): inactive; ED50 (Mus musculus [7]): 31.8 mg/kg

Source: ChEMBL document CHEMBL4312021, “Discovery of [1,2,4]-triazolo [1,5-a]pyrimidine-7(4H)-one derivatives as positive modulators of GABAA1 receptor with potent anticonvulsant activity and low toxicity” (Eur J Med Chem, 2020)
